Results from US20110152333A1, “3-CYANOPYRROLIDINYL-PHENYL-OXAZOLIDINONES AS ANTIBACTERIAL AGENTS” (FERRER INTERNACIONAL, S.A., priority 2008, published 2011).
≈ marks a conversion by molar mass, not a printed value. Where two headings read alike, the source gives them in different places. Blank lines part the entries; values can stand above or below the molecule they belong to.

Key:
[1] = test system: S. aureus ATCC25923 MS; experiment: MIC, micro dilution (NCCLS M7-A5); type: cell-based, Staphylococcus aureus
[2] = test system: S. pneumoniae ATCC49619 PR; experiment: MIC, micro dilution (NCCLS M7-A5); type: cell-based, Streptococcus pneumoniae
[3] = test system: E. faecium ATCC51559 MDR; experiment: MIC, micro dilution (NCCLS M7-A5); type: cell-based, Enterococcus faecium
[4] = test system: S. aureus LNZ-R 432; experiment: MIC, micro dilution (NCCLS M7-A5); type: cell-based; details: Staphylococcus aureus, LNZR432, Table 1
[5] = test system: H. influenzae ATCC49247; experiment: MIC, micro dilution (NCCLS M7-A5); type: cell-based, Haemophylus influenzae; details: Haemophilus influenzae, Table 1
[6] = test system: B. fragilis sp. fragilis ATCC25285; experiment: MIC, micro dilution (NCCLS M7-A5); type: cell-based; details: Bacteroides fragilis, Table 1, Brucella Blood medium for anaerobic strains
[7] = test system: Moraxella catarrhalis HCI-78; experiment: MIC, micro dilution (NCCLS M7-A5); type: cell-based; details: HCI78, Table 1, 5% CO2
[8] = test system: E. faecium LNZ-R LR-4; experiment: MIC, micro dilution (NCCLS M7-A5); type: cell-based, Enterococcus faecium
[9] = test system: S. aureus clinical strain cfr. methylase; experiment: MIC, micro dilution (NCCLS M7-A5); type: cell-based; details: Staphylococcus aureus, Table 2
[10] = test system: S. aureus 1199; experiment: MIC, micro dilution (NCCLS M7-A5); type: cell-based; details: Staphylococcus aureus, Table 2
[11] = test system: S. aureus 199B; experiment: MIC, micro dilution (NCCLS M7-A5); type: cell-based; details: Staphylococcus aureus, Table 2
[12] = test system: MRSE; experiment: MIC, micro dilution (NCCLS M7-A5); type: cell-based; details: Staphylococcus epidermidis, Table 2
[13] = test system: MRSE-128; experiment: MIC, micro dilution (NCCLS M7-A5); type: cell-based; details: Table 2
[14] = test system: S. Haemolyticus; experiment: MIC, micro dilution (NCCLS M7-A5); type: cell-based; details: Staphylococcus haemolyticus, Table 2
[15] = test system: E. faecalis ECFL-1; experiment: MIC, micro dilution (NCCLS M7-A5); type: cell-based; details: Enterococcus faecalis, ECFL1, Table 2
[16] = test system: E. faecalis ECFL-1-128; experiment: MIC, micro dilution (NCCLS M7-A5); type: cell-based; details: Enterococcus faecalis, ECFL1128, Table 2
[17] = test system: E. faecalis ECFL-2; experiment: MIC, micro dilution (NCCLS M7-A5); type: cell-based; details: Enterococcus faecalis, ECFL2, Table 2
[18] = test system: E. faecium ECFM-1; experiment: MIC, micro dilution (NCCLS M7-A5); type: cell-based; details: Enterococcus faecium, ECFM1, Table 2
[19] = test system: E. faecium ECFM-1-128; experiment: MIC, micro dilution (NCCLS M7-A5); type: cell-based; details: Enterococcus faecium, ECFM1128, Table 2
[20] = test system: E. faecium ECFM-2; experiment: MIC, micro dilution (NCCLS M7-A5); type: cell-based; details: Enterococcus faecium, ECFM2, Table 2
[21] = test system: Staphyl.; experiment: Geometric mean MIC, staphylococci; type: cell-based; details: Table 2, read-out: Geom. Mean MIC Staphyl.
[22] = test system: Enteroc.; experiment: Geometric mean MIC, enterococci; type: cell-based; details: Table 2, read-out: Geom. Mean MIC Enteroc.
[23] = test system: S. aureus ATCC33591 in vivo; experiment: MIC, micro dilution (NCCLS M7-A5); type: cell-based; details: Staphylococcus aureus, Table 2
[24] = test system: S. pneumoniae ATCC6303 in vivo; experiment: MIC, micro dilution (NCCLS M7-A5); type: cell-based; details: Streptococcus pneumoniae, Table 2
[25] = test system: S. aureus ATCC43300 MR; experiment: MIC, micro dilution (NCCLS M7-A5); type: cell-based; details: Staphylococcus aureus, Table 2
[26] = test system: S. aureus 1199B NorA overE; experiment: MIC, micro dilution (NCCLS M7-A5); type: cell-based; details: Staphylococcus aureus
[27] = test system: S. epidermidis ATCC12228 MR; experiment: MIC, micro dilution (NCCLS M7-A5); type: cell-based; details: Staphylococcus epidermidis, Table 2
[28] = test system: E. faecalis ATCC29212; experiment: MIC, micro dilution (NCCLS M7-A5); type: cell-based; details: Enterococcus faecalis, Table 2
[29] = test system: E. faecalis ATCC51575 MDR; experiment: MIC, micro dilution (NCCLS M7-A5); type: cell-based; details: Enterococcus faecalis, Table 2
[30] = test system: E. faecium ATCC10541; experiment: MIC, micro dilution (NCCLS M7-A5); type: cell-based; details: Enterococcus faecium, Table 2
[31] = test system: E. coli TG1; experiment: MIC, micro dilution (NCCLS M7-A5); type: cell-based; details: Escherichia coli, Table 2
[32] = test system: E. coli KAM-3; experiment: MIC, micro dilution (NCCLS M7-A5); type: cell-based; details: Escherichia coli, KAM3, Table 2
[33] = test system: Gram+; experiment: Geometric mean MIC, Gram+; type: cell-based; details: Table 2, read-out: Geom. Mean MIC Gram+
[34] = test system: Moraxella, Pasteurella and Bacteroides spp.; details: background; cited from earlier work
[35] = Staphylococcus aureus, Table 1, read-out: MIC
[36] = Streptococcus pneumoniae, Table 1, 5% CO2, read-out: MIC
[37] = Enterococcus faecium, Table 1, read-out: MIC
[38] = Enterococcus faecium, Table 2, read-out: MIC

SMILES: CC(=O)NC[C@H]1CN(c2ccc(N3CCC(C#N)C3)c(F)c2)C(=O)O1 (stereo partly drawn) [Ex. 1, N-{(5S)-3-[3-fluoro-4-(3-cyanopyrrolidin-1-yl)phenyl]-2-oxo-5-oxazolidinylmethyl}acetamide]
MIC [1, 35]: 0.5 µg/mL (≈ 1.44 µM) | MIC ([1]; Table 2): 0.5 µg/mL (≈ 1.44 µM) | MIC [2, 36]: 0.25 µg/mL (≈ 0.722 µM) | MIC ([2]; Table 2): 0.25 µg/mL (≈ 0.722 µM) | MIC [3, 37]: 0.25 µg/mL (≈ 0.722 µM) | MIC ([3]; Table 2): 0.25 µg/mL (≈ 0.722 µM) | MIC [4]: 4 µg/mL (≈ 11.5 µM) | MIC [5]: 4 µg/mL (≈ 11.5 µM) | MIC [6]: 0.5 µg/mL (≈ 1.44 µM) | MIC [7]: 2 µg/mL (≈ 5.77 µM) | MIC [8, 37]: 8 µg/mL (≈ 23.1 µM) | MIC ([8]; Table 2): 8 µg/mL (≈ 23.1 µM) | MIC [9]: 4 µg/mL (≈ 11.5 µM) | MIC [10]: 1 µg/mL (≈ 2.89 µM) | MIC [11]: 1 µg/mL (≈ 2.89 µM) | MIC [12]: 0.25 µg/mL (≈ 0.722 µM) | MIC [13]: 8 µg/mL (≈ 23.1 µM) | MIC [14]: 8 µg/mL (≈ 23.1 µM) | MIC [15]: 0.125 µg/mL (≈ 0.361 µM) | MIC [16]: 32 µg/mL (≈ 92.4 µM) | MIC [17]: 1 µg/mL (≈ 2.89 µM) | MIC [18]: 0.5 µg/mL (≈ 1.44 µM) | MIC [19]: 32 µg/mL (≈ 92.4 µM) | MIC [20]: 0.5 µg/mL (≈ 1.44 µM) | MIC [21]: 0.4 µg/mL (≈ 1.15 µM) | MIC [22]: 0.3 µg/mL (≈ 0.866 µM) | MIC [23]: 0.25 µg/mL (≈ 0.722 µM) | MIC [24]: 0.25 µg/mL (≈ 0.722 µM) | MIC [25]: 0.5 µg/mL (≈ 1.44 µM) | MIC [26]: 0.5 µg/mL (≈ 1.44 µM) | MIC [27]: 0.25 µg/mL (≈ 0.722 µM) | MIC [28]: 0.25 µg/mL (≈ 0.722 µM) | MIC [29]: 0.25 µg/mL (≈ 0.722 µM) | MIC [30]: 0.25 µg/mL (≈ 0.722 µM) | MIC [31]: 32 µg/mL (≈ 92.4 µM) | MIC [32]: 1 µg/mL (≈ 2.89 µM)

SMILES: CC(=O)NC[C@H]1CN(c2ccc(N3CCC(O)C3)c(F)c2)C(=O)O1 (stereo partly drawn) [Ex. 5, (S)—N-[[3-[4-(3-hydroxypyrrolidinyl)-3-fluorophenyl]-2-oxo-5-oxazolidinyl]methyl]acetamide, reference compound]
MIC ([1]; Staphylococcus aureus, Table 2, read-out: MIC): 2 µg/mL (≈ 5.93 µM) | MIC ([2]; Streptococcus pneumoniae, Table 2, read-out: MIC): 1 µg/mL (≈ 2.96 µM) | MIC [3, 38]: 1 µg/mL (≈ 2.96 µM) | MIC [8, 38]: 32 µg/mL (≈ 94.9 µM) | MIC [9]: 16 µg/mL (≈ 47.4 µM) | MIC [10]: 2 µg/mL (≈ 5.93 µM) | MIC [11]: 2 µg/mL (≈ 5.93 µM) | MIC [12]: 1 µg/mL (≈ 2.96 µM) | MIC [13]: 32 µg/mL (≈ 94.9 µM) | MIC [14]: 32 µg/mL (≈ 94.9 µM) | MIC [15]: 2 µg/mL (≈ 5.93 µM) | MIC [16]: 64 µg/mL (≈ 190 µM) | MIC [17]: 4 µg/mL (≈ 11.9 µM) | MIC [18]: 2 µg/mL (≈ 5.93 µM) | MIC [19]: 64 µg/mL (≈ 190 µM) | MIC [20]: 2 µg/mL (≈ 5.93 µM) | MIC [21]: 1.2 µg/mL (≈ 3.56 µM) | MIC [22]: 1.7 µg/mL (≈ 5.04 µM) | MIC [33]: 1.4 µg/mL (≈ 4.15 µM) | MIC [23]: 2 µg/mL (≈ 5.93 µM) | MIC [24]: 0.5 µg/mL (≈ 1.48 µM) | MIC [25]: 1 µg/mL (≈ 2.96 µM) | MIC [26]: 1 µg/mL (≈ 2.96 µM) | MIC [27]: 1 µg/mL (≈ 2.96 µM) | MIC [28]: 2 µg/mL (≈ 5.93 µM) | MIC [29]: 2 µg/mL (≈ 5.93 µM) | MIC [30]: 2 µg/mL (≈ 5.93 µM) | MIC [31]: 64 µg/mL (≈ 190 µM) | MIC [32]: 4 µg/mL (≈ 11.9 µM)

MIC [1, 35]: 1 µg/mL (≈ 2.96 µM) | MIC [2, 36]: 1 µg/mL (≈ 2.96 µM) | MIC [3, 37]: 0.5 µg/mL (≈ 1.48 µM) | MIC [4]: 16 to 32 µg/mL (≈ 47.4 to 94.9 µM) | MIC [5]: 16 µg/mL (≈ 47.4 µM) | MIC [6]: 2 µg/mL (≈ 5.93 µM) | MIC [7]: 2 µg/mL (≈ 5.93 µM) | MIC [8, 37]: 64 µg/mL (≈ 190 µM)
SMILES: CC(=O)NC[C@H]1CN(c2ccc(N3CCOCC3)c(F)c2)C(=O)O1 [Linezolid, N-[[(5S)-3-[3-fluoro-4-(4-morpholinyl)phenyl]-2-oxo-5-oxazolidinyl]methyl]acetamide, reference compound]
MICs [34]: 2 to 8 µg/mL
